Data reported in patent EP1012175B1, “A PEPTIDE WITH AN AFFINITY FOR CLOTTING FACTOR VIII” (Octapharma AG, priority 1997, dated 2003).
“Also recorded” adds a separate entry of the source.

Key:
[1] = tested on: pdFVIII (Faktor VIII aus Plasma); experiment: Membrane spot binding test: immobilised peptides incubated with plasma-derived factor VIII (Octavi), detected with anti-FVIII antibodies; set-up: species or system human; conditions: peptide immobilised on membrane; Octavi 240 Units in 10 ml PBS pH 7.0 with 1% BSA, 2 h; binders appear as coloured spots
Procedure: (§1) Die Peptide Seq. Id. No. 55 bis 90 wurden auf einer Membran immobilisiert. Nach Äquilibrieren mit PBS Puffer pH 7.0 wurde eine Membran mit Faktor VIII Octavi® (240 Units in 10 ml PBS pH 7.0 mit 1% BSA), eine andere mit Kogenate® (250 U in 10 ml PBS, pH 7.0 mit 1% BSA) und eine nur mit PBS, pH 7.0 mit 1% BSA für zwei Stunden inkubiert. Die mit den Peptiden besetzten Membranen wurden sorgfältig mit PBS Puffer pH 7.0 gewaschen und anschließend mit den Anti-FVIII Antikörpern (Chemicon International Inc., MAB038, Sera-Lab MAS 530, MAS 531, MAS 532) für eine Stunde versetzt. Nach Waschen und Inkubieren mit Anti-Maus-IgG/alkalische Phosphatase Konjugat (1:1000, Sigma Chemicals, A-4338) wurde mit Hilfe von NBT und BCIP in 0,1 M Trispuffer, pH 9,2, entwickelt. Faktor VIII bindende Peptide erschienen als gefärbte Spots. Die Kontrollmembran (nur mit PBS pH 7.0 ohne Faktor VIII) wurde mit den beiden anderen verglichen.

[2] = tested on: rekombinanten Faktor VIII; experiment: Membrane spot binding test: immobilised peptides incubated with recombinant factor VIII (Kogenate), detected with anti-FVIII antibodies; conditions: peptide immobilised on membrane; Kogenate 250 U in 10 ml PBS pH 7.0 with 1% BSA, 2 h; binders appear as coloured spots
Procedure: as §1

pdFVIII = experiment: Affinity chromatography of pdFVIII on peptide membranes; eluates analysed by SDS-PAGE and Western blot; assay type: binding, human; conditions: for Banden in der SDS-PAGE unter reduzierenden Bedingungen und Silberfärbung / Western Blot des Eluates: eluate of pdFVIII run; for Banden in der SDS-PAGE unter reduzierenden Bedingungen und Silberfärbung / Elutionspeak: compared with (βAla)2 control membrane; for Western Blot des Eluates: control membrane weakly positive; for Eignung für die Affinitätschromatographie von pdFVIII: general statement of the description; for Elutionspeak: pdFVIII, elution with 0,1 M Glycin pH 3.0
Text: (§2) Aus Membranen, auf die die jeweiligen Peptide immobilisiert wurden, wurden jeweils 30 Scheiben mit einem Durchmesser von 11 mm ausgestanzt. Diese wurden in eine HR 10 Säule (Pharmacia Biotechnology, Uppsala, Schweden) gepackt und zwischen zwei Stempeln fixiert.
(§3) Für alle chromatographischen Experimente wurde das Chromatographiesystem ProSys (Biosepra Inc. Marlborough, USA) verwendet.
(§4) PBS Puffer pH 7.0 wurde als Äquilibrierungs- und Waschpuffer verwendet. Für die Elution wurde ein 0,1 M Glycinpuffer pH 3.0 angewandt. Die Flußgeschwindigkeit betrug bei allen Versuchen 0,1 ml/min.
Lyophilisierter Faktor VIII aus Plasma wurde in 11 ml destilliertem Wasser zu einer Konzentration von 90 Units/ml aufgelöst. Davon wurden jeweils 4 ml mit einer Flußrate von 0,1 ml/min aufgetragen. Anschließend wurden die Affinitätsträger mit PBS-Puffer pH 7.0 gewaschen bis das UV Signal (280 nm) wieder die Basislinie erreichte. Das gebundene Material wurde mit 0,1 M Glycin pH 3.0 eluiert. Die gesammelten Fraktionen wurde mittels SDS-Page unter reduzierenden Bedingungen und Western Blot analysiert. Auf diese Weise wurden Peptide und der ßAla-ßAla-Blank auf ihre Fähigkeit Faktor VIII aus dem Octavipräparat zu binden untersucht.
(§5) Der Durchlauf und die Eluate aller Läufe wurden gesammelt und mittels SDS-PAGE unter reduzierenden Bedingungen und Western-Blot analysiert.
Für die Auftrennung wurden 4 bis 20% Tris-Glycin Gele von Novex verwendet. Die Proben wurden mit SDS-Probepuffer (1,5 M Tris HCl pH 8.45, 1,2 ml Glycerin, 0,4 g SDS, 0,1% Coomassie Blue, 0,1% Phenol Rot pro 10 ml), und 5% ß-Mercaptoethanol versetzt und über Nacht bei 4°C inkubiert. Nach der Trennung wurden die Gele silbergefärbt und eingescannt.
Nach Beendigung der elektrophoretischen Trennung wurden die Gele auf eine Nitrocellulose Membran bei 200 mA konstant für zwei Stunden elektrogeblottet. Anschließend wurde die Membran mit PBS + 3% BSA für zwei Stunden blockiert. Nach Waschen mit PBS Puffer erfolgte die Zugabe der Anti-FVIII Antikörpermischung (Chemicon International Inc., MAB038, Sera-Lab MAS 530, MAS 531, MAS 532) für zwei Stunden. Nach Waschen mit PBS wurde mit Anti Maus IgG alkalische Phosphatase (1:1000, Sigma Chemicals, A-3438) für eine Stunde inkubiert. Die Entwicklung erfolgte mit 0,1 M Tris, pH 9.2, NBT und BCIP.
(§6) Die Affinitätschromatographie wurde wie im Beispiel 1 beschrieben, durchgeführt.

[3] = tested on: rekombinantem Faktor VIII aus Kogenate®; experiment: Affinity chromatography of recombinant factor VIII (Kogenate) on peptide membranes; eluates analysed by Western blot; assay type: binding; conditions: for Western Blot der Eluate: eluate of rFVIII (Kogenate) run, control membrane also positive; for Elutionspeak: rFVIII (Kogenate), elution with 0,1 M Glycin pH 3.0, compared with ßAla-ßAla control membrane
Text: as §2, §3, §4
Die Bindung von rekombinantem Faktor VIII wurde mittels Kogenate® (Firma Bayer) untersucht. Jeweils 400 µl des Präparates (200 Units) wurden mit 1.400 µl destilliertem Wasser verdünnt und anschließend mit einer Flußrate von 0,1 ml/min auf den Affinitätsträger aufgetragen. Das Waschen erfolgte wiederum mit PBS, pH 7.0 und die darauf folgende Elution mit 0,1 M Glycin, pH 3.0. Die Fraktionen wurden mittels SDS-Page unter reduzierenden Bedingungen und Western-Blot analysiert.
as §5
Für die Auftrennung wurden 4 bis 20% Tris-Glycin Gele von Novex verwendet. […] Nach der Trennung wurden die Gele silbergefärbt und eingescannt.
Nach Beendigung der elektrophoretischen Trennung wurden die Gele auf eine Nitrocellulose Membran bei 200 mA konstant für zwei Stunden elektrogeblottet. Anschließend wurde die Membran mit PBS + 3% BSA für zwei Stunden blockiert. […] Die Entwicklung erfolgte mit 0,1 M Tris, pH 9.2, NBT und BCIP.
as §6

Substance | Bindung zu pdFVIII (Faktor VIII aus Plasma) [1] | Bindung von rekombinantem Faktor VIII [2] | further results
84 (EYIKWEEF) [compound 84] | auffallende Affinität | auffallende Affinität | –
68 (EWIKCEEF) [compound 68] | – | binden rekombinanten Faktor VIII | –
89 (EYKSWEYC) [compound 89] | auffallende Affinität; also recorded: Bindung zu pdFVIII | auffallende Affinität | –
72 (EWIKWEEF) [compound 72] | auffallende Affinität; also recorded: Bindung zu pdFVIII | auffallende Affinität; also recorded: binden rekombinanten Faktor VIII | Banden in der SDS-PAGE unter reduzierenden Bedingungen und Silberfärbung (pdFVIII): intensiver gefärbte Banden; Western Blot des Eluates (pdFVIII): positiv; Eignung für die Affinitätschromatographie von pdFVIII (pdFVIII): eignen sich insbesondere; Elutionspeak (pdFVIII): größere Elutionspeaks
76 (EWKSEFEF) [compound 76] | Bindung zu pdFVIII | – | –
EYKSWEEF [Seq. Id. No. 90, Peptid, 8 Aminosäuren] | auffallende Affinität; also recorded: Bindung zu pdFVIII | auffallende Affinität | Western Blot der Eluate [3]: positiv; Elutionspeak [3]: deutlich größer
71 (EWIKWEYC) [compound 71] | Bindung zu pdFVIII | binden rekombinanten Faktor VIII | –
77 (EWKSWEYC) [compound 77] | Bindung zu pdFVIII | – | –
61 (VMKSCEYC) [compound 61] | Bindung zu pdFVIII | keinen rekombinanten Faktor VIII | –
66 (VMKSWEEF) [compound 66] | auffallende Affinität; also recorded: Bindung zu pdFVIII | auffallende Affinität; also recorded: binden rekombinanten Faktor VIII | Banden in der SDS-PAGE unter reduzierenden Bedingungen und Silberfärbung (pdFVIII): intensiver gefärbte Banden; Western Blot des Eluates (pdFVIII): positiv; Eignung für die Affinitätschromatographie von pdFVIII (pdFVIII): eignen sich insbesondere; Elutionspeak (pdFVIII): größere Elutionspeaks; Western Blot der Eluate [3]: positiv; Eignung für die Affinitätschromatographie von rFVIII (rekombinantem Faktor VIII) ([3]; general statement of the description): eignen sich insbesondere; Elutionspeak [3]: deutlich größer
78 (EWKSWEEF) [compound 78] | auffallende Affinität; also recorded: Bindung zu pdFVIII | auffallende Affinität | –
